Test results reported in ChEMBL document CHEMBL1131998, “Synthesis and biological evaluation of 1,1-difluoro-2-(tetrahydro-3-furanyl)ethylphosphonic acids possessing a N9-purinylmethyl functional group at the ring. a new class of inhibitors for purine nucleoside phosphorylases” (Bioorg Med Chem Lett, 1999).

How the values were obtained:
[1] = molecular target: T1, Purine nucleoside phosphorylase (Homo sapiens, UniProt P00491); experiment: (§1) Compound was evaluated for inhibition of PNP-catalyzed inosine phosphorylation in human erythrocyte; type: functional
T1 sequence (P00491 whole entry): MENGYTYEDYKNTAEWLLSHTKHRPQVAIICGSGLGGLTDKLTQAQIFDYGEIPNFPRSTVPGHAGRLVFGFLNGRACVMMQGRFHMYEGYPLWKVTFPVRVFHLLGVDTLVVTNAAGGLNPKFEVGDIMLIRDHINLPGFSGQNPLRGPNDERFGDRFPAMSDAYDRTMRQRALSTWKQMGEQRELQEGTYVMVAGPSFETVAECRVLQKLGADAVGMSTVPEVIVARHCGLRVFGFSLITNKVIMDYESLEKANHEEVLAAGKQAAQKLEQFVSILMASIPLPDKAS

[2] = molecular target: T1, Purine nucleoside phosphorylase; experiment: as §1

Compound | IC50 [1] | Ki [2]
O=c1[nH]cnc2c1ncn2CC[C@@H]1C[C@H]1C(F)(F)P(=O)(O)O | 340 nM | 8.8 nM
O=P(O)(O)C(F)(F)C[C@H]1COC[C@@H]1Cn1cnc2c(O)ncnc21 | 320 nM | 
O=P(O)(O)C(F)(F)C[C@H]1COC[C@H]1Cn1cnc2c(O)ncnc21 | 88 nM | 15.2 nM
Nc1nc2c(ncn2CCCCC(F)(F)P(=O)(O)O)c(=O)[nH]1 | 380 nM | 53 nM
Nc1nc2c(ncn2CC[C@@H]2C[C@H]2C(F)(F)P(=O)(O)O)c(=O)[nH]1 (racemic) | 330 nM | 28.2 nM
